What all share (type): in vitro ADME
Series [1] is described as follows: Permeability in a Caco-2 assay. The settings on record: human; for efflux ratio at 10 μM: read-out: Mean (B-A/A-B) Efflux Ratio. The method, then:
(§1) Permeability of the S62 and S71 peptides were assessed in a Caco-2 assay using methanol.
(§2) Permeability Ranking: lower is <1×10−6 cm/s; higher is >1×10-6 cm/s.
(Caco-2 monolayers are a common model of the intestinal barrier.)

A short description of the next series: Stability in rat plasma. The settings on record: in vitro in rat plasma, 1% TCA and methanol as quenchers. The protocol:
S62 and S71 peptides (SEQ ID NOs: 3 and 4, respectively) were incubated in vitro in rat plasma with 1% TCA and methanol as quenchers for a period of time calculated to be reflective of the amount of time the peptides would be subject to in vivo conditions if administered to rats.

The subject of a further series is Caco-2. As to the kind of experiment: Permeability in a Caco-2 assay. The settings on record: Caco-2 assay using methanol. The protocol:
as §1, §2

Where [2] appears, read: Caco-2, Assay Conc. 10 μM, without verapamil.
Setting [3] is: Caco-2, Assay Conc. 10 μM, without verapamil, read-out: Mean A-B % Recovery.
The mark [4] stands for this setting: Caco-2, Assay Conc. 10 μM, without verapamil, read-out: Mean B-A % Recovery.
The mark [5] stands for this setting: Caco-2, with Verapamil 25 uM, Assay Conc. 10 μM, with Verapamil 25 uM, read-out: Mean A-B % Recovery.
Where [6] appears, read: Caco-2, with Verapamil 25 uM, Assay Conc. 10 μM, with Verapamil 25 uM, read-out: Mean B-A % Recovery.

Like-named read-outs stand apart in the source and are kept apart here. Ends that are not written are not given here.

With `CNC(=C[N+](=O)[O-])NCCSCc1ccc(CN(C)C)o1` [Ranitidine, reference compound], in series [1] (setting [2]), the Papp A→B at 10 μM stood at 0.391 ×10⁻⁶ cm/s, the Papp B→A at 10 μM came out at 1.03 ×10⁻⁶ cm/s and the efflux ratio at 10 μM was 2.65. Further, in series [1] (setting [3]), the recovery at 10 μM stood at 87.1%. In series [1] (setting [4]), the recovery at 10 μM was 95.2%.

On to `CC(=O)CC(c1ccccc1)c1c(O)c2ccccc2oc1=O` (stereo not shown) [Warfarin, reference compound], for which, in series [1] (setting [2]), the Papp A→B at 10 μM is 36.8 ×10⁻⁶ cm/s, the Papp B→A at 10 μM was 33.8 ×10⁻⁶ cm/s and the efflux ratio at 10 μM is 0.917. The recovery at 10 μM in series [1] (setting [3]) worked out at 93%. The recovery at 10 μM in series [1] (setting [4]) is 93.4%.

Take GAVVWGVTAVKK [S62, GAVVWGVTAVKK]: the “recovery of the peptides after incubation in rat plasma” value in the series “Stability in rat plasma” is “not high enough to detect”. Besides, the “Permeability (in words)” value with Caco-2 is “neither of the peptides exhibited permeability”. The recovery at 10 μM in series [1] (setting [3]) was 70.1%; in series [1] (setting [4]), 92.5%; in series [1] (setting [5]), 59.7%; in series [1] (setting [6]), 91.3%.

With RAVVTGVTAVAE [S71, RAVVTGVTAVAE], the “recovery of the peptides after incubation in rat plasma” value in the series “Stability in rat plasma” is recorded as “not high enough to detect”. For the same compound, the “Permeability (in words)” value in the series on Caco-2 is “neither of the peptides exhibited permeability”. Moreover, the recovery at 10 μM is 91.4% in series [1] (setting [3]), 74.7% in series [1] (setting [4]), 80.7% in series [1] (setting [5]) and 92.7% in series [1] (setting [6]).

As a reminder, the Papp A→B is the apparent permeability from the apical to the basolateral side of a cell layer. Usually Papp B→A stands for how fast a substance crosses the layer from the basolateral side.

Source of the values: patent US20240025953A1, “COMPOSITIONS AND METHODS FOR INHIBITING ALPHA-SYNUCLEIN AGGREGATION” (Seelos Therapeutics, Inc., priority 2020, published 2024).
